From patent publication US20060115502A1, “Cosmetic composition based on cirsimarin” (GATTEFOSSE SAS, priority 2003, published 2006)

Legend:
isolated adipocytes = experiment: Lipolytic activity in vitro on isolated adipocytes (fatty acids released, NEFA C kit); format: cell-based, rats; settings: cirsimarin tested at 0.5 mM and 0.1 mM; 1 hour at 37° C.; FIG. 2
Protocol: a. Positive references and products to be assessed • Noradrenalin (syn. Norepinephrine NE): this molecule, with a molar mass of […], is assessed at the final concentration of 1 μM in a Krebs-Ringer buffer at 4% albumin. • Caffeine: this molecule, with a molar mass of 194.2 g, is assessed at the final concentration of 0.5 mM in a Krebs-Ringer buffer at 4% albumin. • Theophylline: this molecule, with a molar mass of 180.2, is assessed at the final concentration of 0.5 mM in a Krebs-Ringer buffer at 4% albumin. • Cirsimarin: this molecule, with a molar mass of 476.44, is tested at 0.5 mM and 0.1 mM. This molecule is first solubilized in a mixture of solvents: NaOH 0.2 M/DMSO (95/5; v/v). […]
The lipolytic activity is measured by the quantity of fatty acids released; for this, a NEFA C (Non Esterified Fatty Acid/Colorimetric) colorimetric dosage kit sold by Wako® Chemical GmbH is used.
The quantity of fatty acids present in tubes 0 minus that present in tubes 00 corresponds to the basal lipolysis of the adipocytes in the buffer. The quantity of fatty acids present in tubes 0 solvent minus that present in tubes 00 corresponds to the basal lipolysis of the adipocytes in the buffer containing the cirsimarin solution solvent. The quantity of fatty acids released in reaction tubes minus that present in tubes 00 corresponds to the lipolysis induced by the molecules studied.

A1 receptor = biological target: T1, A1 receptor (Homo sapiens, UniProt P30542); settings: from literature; cited from earlier work
T1 sequence (P30542 1-326): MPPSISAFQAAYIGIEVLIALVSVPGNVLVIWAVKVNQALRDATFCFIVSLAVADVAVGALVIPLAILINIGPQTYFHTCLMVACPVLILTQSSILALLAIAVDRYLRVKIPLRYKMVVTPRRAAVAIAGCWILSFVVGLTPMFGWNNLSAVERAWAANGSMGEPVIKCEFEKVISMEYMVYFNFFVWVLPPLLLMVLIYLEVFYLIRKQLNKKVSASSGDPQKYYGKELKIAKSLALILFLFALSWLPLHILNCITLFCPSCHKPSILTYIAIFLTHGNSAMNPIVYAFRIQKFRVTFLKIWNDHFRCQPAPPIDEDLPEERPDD

lipolysis = settings: documents by Nogowski and Jacobson; cited from earlier work

Row | SMILES | lipolytic activity (quantity of fatty acids released) (isolated adipocytes) | A1 receptor antagonist properties (A1 receptor) | lipolytic activity (lipolysis)
1 | COc1cc2oc(-c3ccc(O[C@@H]4O[C@H](CO)[C@@H](O)[C@H](O)[C@H]4O)cc3)cc(=O)c2c(O)c1OC [cirsimarin, 5-hydroxy-6,7-dimethoxyflavone 4′-O-glucoside] | proven in vitro lipolytic activity | A1 receptor antagonist properties | –
2 | O=c1c(-c2ccc(O)cc2)coc2cc(O)cc(O)c12 [genistein] | – | identified as an A1 receptor antagonist | negligible lipolytic activity
